From patent publication US9861099B2, “Composition for enhancing plant disease control effect of monosaccharide” (MITSUI CHEMICALS AGRO, INC., priority 2013, dated 2018)

Experiments:
Type in all cases: in vivo
[1] = test system: Pseudoperonospora cubensis; assay: Cucumber downy mildew (CDM) control test; details: for control effect against cucumber downy mildew: Test Example 10, D-tagatose only
[2] = test system: Plasmopara viticola; assay: Grape vine downy mildew (VDM) control test; details: for control effect against grape vine downy mildew: Test Example 10, D-tagatose only
[3] = test system: Sphaerotheca cucurbitae; assay: Cucumber powdery mildew (CPM) control test; details: for control effect against cucumber powdery mildew: Test Example 10, D-tagatose only
[4] = test system: Puccinia recondita; assay: Wheat brown rust (WR) control test
[5] = test system: Phytophthora infestans; details: Test Example 10, D-tagatose only, treatment concentration 5%
[6] = test system: Blumeria graminis f sp. hordei; assay: Barley powdery mildew (BPM) control test; details: Test Example 10, D-tagatose only
Experimental: (BPM: Barley Powdery Mildew) Test plants (barley variety: Sekishinryoku) were planted followed by cultivating until the second leaf appeared. In the test, dilutions (5 ml/pot) obtained by diluting with distilled water so that each formula reached a prescribed concentration were sprayed. After inoculating the seedlings one day after spraying by shaking off conidia of Blumeria graminis f sp. hordei onto the seedlings, disease development was investigated 7 days after, and the effects thereof were evaluated. Disease development was evaluated using the following indicators for disease control tests evaluated according to the methods described above. Furthermore, preventive values were calculated based on the disease development.

[7] = test system: Phakopsora ampelopsidis; assay: Grape vine rust (VR) control test; details: Test Example 10, D-tagatose only, treatment concentration 5%
Experimental: (VR: Vine Rust) Test plants (grape variety: Neomuscat) were planted followed by cultivating until three to four first leaves appeared. In the test, dilutions (5 ml/pot) obtained by diluting with distilled water so that each formula reached a prescribed concentration were sprayed. After inoculating the seedlings one day after spraying by spraying with 1×10^7 organisms/ml of uredospores of Phakopsora ampelopsidis, the seedlings were allowed to stand for about 24 hours in an inoculation room at a room temperature of 20° C. to 23° C. to promote the onset of disease. Disease development was investigated 12 days after inoculation, and the effects thereof were evaluated. Disease development was evaluated using the following indicators for disease control tests evaluated according to the methods described above. Furthermore, preventive values were calculated based on the disease development.

[8] = test system: Phakopsora pachyrhizi; assay: Soybean rust (SR) control test; details: Test Example 10, D-tagatose only, treatment concentration 5%
[9] = test system: Botrytis cinerea; assay: Tomato gray mold (GM) control test; details: Test Example 10, D-tagatose only, treatment concentration 5%
Experimental: (GM: Gray Mold) Test plants (tomato variety: Oogata Fukuju) were planted followed by cultivating until three first leaves appeared. In the test, dilutions (5 ml/pot) obtained by diluting with distilled water so that each formula reached a prescribed concentration were sprayed. After inoculating the seedlings one day after spraying by spraying with 1×10^7 organisms/ml of conidia of Botrytis cinerea, the seedlings were allowed to stand for about 48 hours in an inoculation room at a room temperature of 20° C. to 23° C. to promote the onset of disease. Disease development was investigated 2 days after inoculation, and the effects thereof were evaluated. Disease development was evaluated using the following indicators for disease control tests evaluated according to the methods described above. Furthermore, preventive values were calculated based on the disease development.

[10] = test system: Magnaporthe grisea; details: Test Example 10, D-tagatose only, treatment concentration 5%
[11] = test system: Colletotrichum orbiculare; assay: Cucumber anthracnose (CA) control test; details: Test Example 10, D-tagatose only, treatment concentration 5%
Experimental: (CA: Cucumber Anthracnose) Test plants (cucumber variety: Sagami Hanjiro) were planted followed by cultivating until the first leaf appeared. In the test, dilutions (5 ml/pot) obtained by diluting with distilled water so that each formula reached a prescribed concentration were sprayed. After inoculating the seedlings one day after spraying by spraying with 1×10^7 organisms/ml of conidia of Colletotrichum orbiculare, the seedlings were allowed to stand for about 24 hours in an inoculation room at a room temperature of 20° C. to 23° C. to promote the onset of disease. Disease development was investigated 10 days after inoculation, and the effects thereof were evaluated. Disease development was evaluated using the following indicators for disease control tests evaluated according to the methods described above. Furthermore, preventive values were calculated based on the disease development.

[12] = test system: Venturia inaequalis; assay: Apple scab (AS) control test; details: Test Example 10, D-tagatose only, treatment concentration 5%
Experimental: (AS: Apple Scab) Test plants (apple variety: Ohrin) were planted followed by cultivating until four first leaves appeared. In the test, dilutions (5 ml/pot) obtained by diluting with distilled water so that each formula reached a prescribed concentration were sprayed. After inoculating the seedlings one day after spraying by spraying with 1×10^5 organisms/ml of conidia of Venturia inaequalis, the seedlings were allowed to stand for about 24 hours in an inoculation room at a room temperature of 18° C. to 20° C. to promote the onset of disease. Disease development was investigated 10 days after inoculation, and the effects thereof were evaluated. Disease development was evaluated using the following indicators for disease control tests evaluated according to the methods described above. Furthermore, preventive values were calculated based on the disease development.

[13] = test system: Septoria tritici; assay: Wheat septoria leaf blotch (SLB) control test; details: Test Example 10, D-tagatose only, treatment concentration 5%
Experimental: (SLB: Septoria Leaf Blotch) Test plants (wheat variety: Norin 61) were planted followed by cultivating until the second leaf appeared. In the test, dilutions (5 ml/pot) obtained by diluting with distilled water so that each formula reached a prescribed concentration were sprayed. After inoculating the seedlings one day after spraying by spraying with 1×10^7 organisms/ml of conidia of Septoria tritici, the seedlings were allowed to stand for about 24 hours in an inoculation room at a room temperature of 18° C. to promote the onset of disease. Disease development was investigated 14 days after inoculation, and the effects thereof were evaluated. Disease development was evaluated using the following indicators for disease control tests evaluated according to the methods described above. Furthermore, preventive values were calculated based on the disease development.

[14] = test system: Pythium aphanidermatum; assay: Pythium red blight of bentgrass, soil irrigation treatment; details: Comparative Example, main agent only (D-tagatose 80 parts), no assistant; 100-fold dilution, soil irrigation 3 L/m^2; five days after inoculation
Experimental: The effects of the D-tagatose water-soluble powders containing anionic surfactant prepared in Example 11 on grass red blight were evaluated. Test plants (grass variety: Bentgrass) were planted, and three weeks later, cut to a height of 1 cm prior to use in the test. In the test, after inoculating the seedlings with Pythium aphanidermatum preliminarily cultured in wheat bran medium, dilutions obtained by diluting each formula 100-fold with well water were used to treat soil by irrigating at 3 L/m^2 (treatment concentrations: D-tagatose 0.8%+assistant 0.2%). After investigating the onset of disease five days after inoculation, control values were calculated from the diseased area. Effects were evaluated using the same evaluation method as Test Example 10.

[15] = test system: Pythium ultimum; assay: Cabbage damping-off, soil irrigation treatment; details: formula containing D-tagatose only, 80-fold dilution (D-tagatose 1%)
Experimental: The effects of the D-tagatose water-soluble powders containing anionic surfactant prepared in Example 11 on […] were evaluated. Test soil was inoculated by contacting with Pythium ultimum preliminarily cultured in wheat bran medium followed by planting the test plants (cabbage variety: Shikidori) therein. The soil was treated by irrigating at 3 L/m^2 with the formulations which had been 80-fold diluted with well water (treatment concentrations: D-tagatose 1%+assistant 0.25%). […] Effects were evaluated using the same evaluation method as Test Example 1. The protective value with respect to cabbage damping-off of a formula containing D-tagatose only was 29.9.

[16] = Test Example 12, D-tagatose 5 parts + Assistant 1 5 parts, 10-fold dilution (D-tagatose 0.5% + Assistant 1 0.5%)
[17] = formula containing D-tagatose only, treatment concentration 0.8%

Structure (SMILES): O=C(CO)[C@@H](O)[C@@H](O)[C@H](O)CO [D-tagatose, reference compound]
- control effect against cucumber downy mildew ([1]; treatment concentration 0.8%): not adequate
- control effect against cucumber downy mildew ([1]; treatment concentration 5%): high control effect
- Protective Value Index CDM, Assistant 1 [1, 16]: 2 (Preventive value of 60 to less than 80)
- preventive value, cucumber downy mildew ([1]; formula containing D-tagatose only, treatment concentration 0.4%): about 50 (40 to 60)
- control effect against grape vine downy mildew ([2]; treatment concentration 0.8%): not adequate
- control effect against grape vine downy mildew ([2]; treatment concentration 5%): high control effect
- Protective Value Index VDM, Assistant 1 [2, 16]: 1 (Preventive value of 30 to less than 60)
- preventive value, grape vine downy mildew [2, 17]: about 40 (30 to 50)
- control effect against cucumber powdery mildew ([3]; treatment concentration 0.8%): not adequate
- control effect against cucumber powdery mildew ([3]; treatment concentration 5%): high control effect
- Protective Value Index CPM, Assistant 1 [3, 16]: 2 (Preventive value of 60 to less than 80)
- preventive value, cucumber powdery mildew [3, 17]: about 50 (40 to 60)
- effects against wheat rust ([4]; Test Example 10, D-tagatose only, treatment concentration 5%): not adequate
- preventive value, wheat rash [4, 17]: about 5 (0 to 10)
- effects against tomato late blight [5]: not adequate
- control effect against barley powdery mildew ([6]; treatment concentration 0.8%): not adequate
- control effect against barley powdery mildew ([6]; treatment concentration 5%): high control effect
- effects against grape vine rust [7]: not adequate
- effects against soybean rust [8]: not adequate
- effects against tomato gray mold [9]: not adequate
- effects against rice blast [10]: not adequate
- effects against cucumber anthracnose [11]: not adequate
- effects against apple scab [12]: not adequate
- effects against wheat speckled leaf blotch [13]: not adequate
- Preventive Value Indices, bentgrass red blight [14]: 1 (Preventive value of 30 to less than 60)
- protective value, cabbage damping-off [15]: 29.9
